Earlier results, collected in patent US20230067402A1, “IS[…] T[…] ANALOGS THEREOF” (Biomind Labs Inc, priority 2021, published 2023).

Details: intramuscular administration

Question: For `CN(C)CCc1c[nH]c2ccccc12` [DMT, N,N-dimethyltryptamine], which “time to peak concentration in the blood” value is on record?
Answer: 10 to 15 min

Question: And the “blood level after one hour” value (after one hour)?
Answer: undetectable levels
